The source of these data is PubChem BioAssay (NCI).

By TGI is commonly meant the concentration at which net growth stops. A higher TGI goes with lower sensitivity of the cells. As usually defined, the GI50 is the concentration that inhibits growth by half.

Common to all, as to experiment: DTP human tumour cell line panel, 48 h
Assay [1] concerns CAKI-1 renal.
Assay [2] deals with OVCAR-5 ovarian.
Assay [3] concerns HL-60(TB) leukemia.
In assay [4] the test system is SF-295 CNS.
In assay [5] the test system is MOLT-4 leukemia.
Assay [6] relates to LOX IMVI melanoma.
Assay [7] relates to SK-OV-3 ovarian.
Assay [8] has as its system MDA-MB-231 breast.
Assay [9] concerns MDA-MB-435.

Each structure is given as a SMILES string.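 Test compounds were applied to cells in 96-well plates for 48 hours at 5 doses. GI50 = concentration required for 50% inhibition of growth. TGI: total growth inhibition.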

For `Cc1cc(Cl)ccc1NC(=O)CCCC(=O)C(C(=O)c1ccccc1)c1ccccc1` (stereo unspecified), the TGI in [1], in assay [2], in assay [3], in assay [4], in assay [5] and in assay [6] was > 100 µM in each case. Moreover, the TGI in assay [7] was > 100 µM.
For `O=C(O)c1oc2cccc3c2c1CCC3`, the concentration for total growth inhibition (TGI) in assay [2], in [3], in assay [4], in [5], in assay [6] and in [7] was > 100 µM throughout.
For `[N-]=[N+]=Nc1c(Br)c(=O)[nH]c(=O)n1COCCO`, the TGI in assay [1], in assay [2], in assay [3], in [4], in [5] and in assay [6] was > 100 µM each time.
Take `CNC(C)Cc1ccc(O)cc1` (stereo unspecified): the concentration for total growth inhibition (TGI) in [1], in assay [2], in assay [3], in assay [4], in [5] and in assay [6] was > 100 µM in each case. In addition, the total growth inhibition concentration (TGI) in assay [7] is > 100 µM.
Turning to `c1ccc(COc2cccc3cccnc23)cc1`, the total growth inhibition concentration (TGI) in assay [2] is > 100 µM; in assay [3] it was 57.5 µM; in assay [4], > 100 µM; in assay [5], > 100 µM; in assay [6] it was > 100 µM; in [7], > 100 µM.
For the molecule `CN(C)c1ccc(N=C(C#N)c2nc(N)nc(N3CCN(c4ccccc4)CC3)n2)cc1`, the GI50 is 20.4 µM in [1]; > 50 µM in assay [2]; 10.7 µM in assay [8]; > 50 µM in [3]; > 43.9 µM in assay [9]; 14.7 µM in assay [4]. The results for the GI50 in [5], in [6] and in assay [7] were > 50 µM, 19.6 µM and 16.6 µM, respectively. For the same molecule, the total growth inhibition concentration (TGI) in assay [1] is > 46.7 µM; in [2], > 50 µM; in assay [8], 31.3 µM; in [3], > 50 µM; in assay [9], > 50 µM; in [4] it was > 43.7 µM. Further, the TGI is > 50 µM in [5], > 45.1 µM in assay [6] and > 35.4 µM in assay [7].
In the case of `CC1=NN(C(=O)c2cc(Cl)cc([N+](=O)[O-])c2)C(=O)C1N=Nc1ccccc1C(=O)O` (stereo unspecified), the TGI in assay [1], in [2], in [3], in assay [4], in [5] and in assay [7] was > 100 µM throughout.
Take `CCOC(=O)/C(C#N)=C(N)/C(=N\Nc1cccc(C(F)(F)F)c1)C(=O)OCC`: the TGI in assay [1], in assay [2], in assay [3], in assay [4], in assay [5] and in [6] was > 100 µM in each case. The TGI in assay [7] is > 100 µM.
Turning to `COC(=O)C12C3C4C1C1C2C3C41C(=O)N(C(C)C)C(C)C` (stereo unspecified), the concentration for total growth inhibition (TGI) in [2], in assay [3], in assay [4], in assay [5] and in assay [7] was > 100 µM throughout.
In the case of `Cc1cccc(O)c(=O)c1`, the TGI in assay [1] is > 100 µM; in assay [2] it was > 100 µM; in assay [3], 12.1 µM; in assay [4], > 100 µM; in assay [5], > 100 µM; in [6] it was > 100 µM. For the same molecule, the TGI in [7] is > 100 µM.
As for `CCCCN(CCCC)C(=O)C(=O)CC(=O)/C=C/c1ccccc1`, the concentration for total growth inhibition (TGI) in [1], in assay [2], in assay [3], in assay [4], in assay [5] and in [6] was > 100 µM in each case. Besides, in [7], the total growth inhibition concentration (TGI) was > 100 µM.
Regarding `CCCCCCCCCCCCCCC(O)C1CCC(C(O)CCC(O)CCCCCC(O)CC2=CC(C)OC2=O)O1` (stereo unspecified), the total growth inhibition concentration (TGI) in assay [1] was determined as 20.8 µM; in assay [2] it was 20.3 µM; in assay [3], 1.56 µM; in assay [4], 10.3 µM; in [5] it was 3.14 µM; in assay [6], 4.59 µM. In addition, the concentration for total growth inhibition (TGI) in assay [7] stood at 15 µM.
As to `N=C1C(c2nc(-c3ccc(Br)cc3)cs2)=C(O)CN1CC1CCCO1` (stereo unspecified), the GI50 in assay [1], in assay [2], in assay [8], in assay [3], in assay [9] and in assay [4] was > 100 µM in each case. Besides, the GI50 in [5] and in assay [7] was > 100 µM each time. For the same molecule, the TGI in assay [1], in [2], in assay [8], in assay [3], in assay [9] and in assay [4] was > 100 µM throughout. Further, the TGI in assay [5] and in [7] was > 100 µM each time.
For `CCOC(=O)NC(=O)c1cn(C2OC(CO)C(O)C2O)c(=O)[nH]c1=O` (stereo unspecified), the TGI in [1], in assay [2], in assay [3], in assay [4], in assay [5] and in [6] was > 100 µM in each case. In addition, the TGI in assay [7] is > 100 µM.
Regarding `COc1cc(C(=O)C/C(CCC(=O)Nc2ccc(Cl)cc2Cl)=N/Nc2nnc(C)n2N)ccc1O`, the concentration for total growth inhibition (TGI) in assay [1], in [2], in assay [3], in assay [4], in assay [6] and in assay [7] was > 100 µM each time.
Regarding `O=c1cccccc1NCCNc1cccccc1=O`, the TGI in assay [1], in assay [2], in assay [3], in [4], in assay [5] and in [6] was > 100 µM each time. The concentration for total growth inhibition (TGI) in assay [7] was > 100 µM.
Take `C[C@@H](c1ccccc1)N(CC#N)C1CCC[C@H]1O` (stereo partly specified): the TGI in assay [3], in assay [4], in assay [5], in assay [6] and in [7] was > 100 µM in each case.
As for `O=C(c1ccccc1)c1ccccc1C(=O)c1ccccc1`, the GI50 in [1] is 19.4 µM; in assay [2], > 100 µM; in assay [8] it was 65.5 µM; in assay [3] it was 53.7 µM; in assay [9] it was 28.7 µM; in [4] it was 31 µM. The GI50 is 32.7 µM in [5], 46 µM in [6] and 50.3 µM in [7]. The concentration for total growth inhibition (TGI) in assay [1] is 70.6 µM; in assay [2], > 100 µM; in assay [8], > 100 µM; in [3], > 100 µM; in assay [9] it was > 100 µM; in assay [4], > 100 µM. Further, the total growth inhibition concentration (TGI) in assay [5], in assay [6] and in assay [7] was > 100 µM in each case.
As to `C(#Cc1ccccc1C#Cc1ccccn1)c1ccccn1`, the GI50 in assay [1] was 18.3 µM; in assay [2] it was 17.2 µM; in [8], 16.6 µM; in [3], 3.92 µM; in [9], 8.43 µM; in assay [4] it was 16.8 µM. The GI50 is 3.44 µM in assay [5], 15.4 µM in [6] and 16.5 µM in assay [7]. Also, the TGI in assay [1] came to 42.5 µM; in assay [2], 40.5 µM; in [8], 36.6 µM; in assay [3] it was 17.7 µM; in assay [9], 22.5 µM; in assay [4], 33.3 µM. Moreover, the concentration for total growth inhibition (TGI) came out at 20.1 µM in [5], 30.9 µM in assay [6] and 37.9 µM in assay [7].
As to `O=C(Nc1ccccc1C(=O)O)C(=O)C(C(=O)c1ccccc1-c1ccccc1)C1OC(=O)c2ccccc21` (stereo unspecified), the TGI is > 100 µM in [1]; 42.2 µM in assay [2]; 70.6 µM in assay [3]; 53.5 µM in assay [4]; > 100 µM in [5]; 38.3 µM in assay [6]. In assay [7], this molecule returned a concentration for total growth inhibition (TGI) of 94 µM.
For the molecule `N[C@H](C(=O)O)[C@@H](Cl)CC(=O)O`, the TGI in assay [1], in assay [2], in [3], in assay [4], in assay [5] and in assay [6] was > 100 µM each time. Besides, in [7], the TGI is > 100 µM.
Consider `COC(=O)C1=C(c2cc(OC)c(OC)c(OC)c2)O[C@H](c2ccc3c(c2)OCO3)[C@H]1COC(C)=O`, for which the TGI in [1] is > 100 µM; in assay [2] it was > 100 µM; in [3] it was 40.3 µM; in [4], 41 µM; in assay [5], 74 µM; in [6], > 100 µM. This molecule also returned a TGI in [7] of 52.1 µM.
Regarding `C/C=C/C(=O)[O-].N.N.N.N.N.[Co+3].[O-][Cl+3]([O-])([O-])[O-]`, the GI50 in assay [2], in assay [3], in [4], in [5], in assay [6] and in assay [7] was > 100 µM throughout. Further, the TGI in assay [2], in assay [3], in assay [4], in [5], in assay [6] and in assay [7] was > 100 µM each time.
As to `Cc1ccc(SCC(O)=C2C(=O)CCCC2=O)cc1`, the TGI in assay [1], in assay [2], in assay [3], in [4], in assay [5] and in assay [6] was > 100 µM each time. Moreover, the TGI in assay [7] was > 100 µM.
Turning to `COc1cc2c3c(c1OC)Oc1ccc(cc1)CC1c4c(cc(OC)c(OC)c4Oc4ccc(cc4)CC3N(C)CC2)CCN1C` (stereo unspecified), the TGI in assay [1] was > 100 µM; in assay [2], > 100 µM; in assay [3] it was 34.1 µM; in assay [4], 36.1 µM; in assay [5], 63.2 µM; in assay [6], 34.9 µM. Moreover, in assay [7], the TGI was determined as 84.1 µM.
`CCC1(CC)C(=O)[N-]C(=O)[N-]C1=O.[Au+].[Au+].c1ccc([PH+](c2ccccc2)c2ccccc2)cc1.c1ccc([PH+](c2ccccc2)c2ccccc2)cc1`: the figures for the GI50 in [2], in assay [4] and in [7] were 1.68 µM, 1.52 µM and 1.73 µM, respectively. Further, the values for the concentration for total growth inhibition (TGI) in assay [2], in assay [4] and in assay [7] were 3.06 µM, 2.91 µM and 3.11 µM, respectively.
Consider `O=C1C2=C(c3ccccc31)C(c1ccc(Cl)cc1)NC(=S)N2` (stereo unspecified), for which the TGI in assay [1] was 78.3 µM; in assay [2], > 100 µM; in assay [3], 37.8 µM; in assay [4] it was 29.9 µM; in assay [5], 41.3 µM; in [7], > 100 µM.
Regarding `O=C1C2=C(c3ccccc31)C(c1ccc(F)cc1)N1C(=O)CCSC1=N2` (stereo unspecified), the TGI in assay [1], in [2], in assay [3], in [4], in [5] and in assay [7] was > 100 µM throughout.
For `Cc1ccc(C)c2c1CCc1cc3ccccc3nc1-2`, the TGI in assay [1], in [2], in assay [4], in assay [5] and in assay [7] was > 100 µM in each case.
With `O=C(O)Cc1cc(=O)[nH]c2c1C(=O)CCC2`, the TGI in [2], in [3], in assay [4], in assay [5] and in assay [7] was > 100 µM throughout.
